The experiment concerns the target T1, cereblon (CRBN)—DNA damage protein 1 (DDB1) complex (Homo sapiens, UniProt Q96SW2).
T1 construct: encoding amino acid residues 1 to 442 (Uniprot Q96SW2); hexahistidine (N); thrombin cleavage site (N); made in house; host or cells: Sf9 insect cells (baculovirus co-infection)
Put plainly: Cereblon HTRF binding assay. In outline:
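Biotinylated His-tagged CRBN-DDB1 (0.2 nM, baculovirus-expressed) was combined with 0.2 nM terbium cryptate streptavidin and 2 nM Cy5-lenalidomide probe in 50 mM Tris-HCl pH 7.5, 100 mM NaCl, 1 mM TCEP, 500 μM EDTA, 0.01% Pluronic F127 for 2 h at r.t. HTRF ratio was normalized to plate controls. IC50 came from a Hill fit, given as mean of one or more experiments.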
On the technique in general: In TR-FRET formats the signal depends on donor and acceptor labels being close together.

The structures appear in SMILES notation.

T1 sequence (Q96SW2 with tags, fused parts or gaps): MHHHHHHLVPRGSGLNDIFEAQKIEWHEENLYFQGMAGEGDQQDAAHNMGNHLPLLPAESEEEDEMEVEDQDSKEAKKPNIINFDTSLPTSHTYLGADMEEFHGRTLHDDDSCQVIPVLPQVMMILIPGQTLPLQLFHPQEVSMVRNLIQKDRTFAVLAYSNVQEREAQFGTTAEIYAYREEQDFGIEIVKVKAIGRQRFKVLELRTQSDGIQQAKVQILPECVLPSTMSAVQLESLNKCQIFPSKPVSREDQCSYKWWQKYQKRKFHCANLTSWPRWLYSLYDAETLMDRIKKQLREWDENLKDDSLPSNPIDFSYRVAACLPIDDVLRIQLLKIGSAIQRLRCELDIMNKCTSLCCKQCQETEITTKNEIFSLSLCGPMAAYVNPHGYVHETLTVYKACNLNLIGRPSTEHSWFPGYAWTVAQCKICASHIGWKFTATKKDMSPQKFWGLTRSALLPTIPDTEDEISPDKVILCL

Take `O=C1CCN(c2ccc3cn(C4CCNCC4)nc3c2)C(=O)N1` [Example 109, 1-(2-(Piperidin-4-yl)-2H-indazol-6-yl)dihydropyrimidine-2,4 (1H,3H)-dione]: the IC50 (as a rule, the concentration that inhibits the measured activity by half) amounted to 1030 nM. With `CN1CCC(n2cc3ccc(N4CCC(=O)NC4=O)cc3n2)CC1` [Example 110, 1-(2-(1-Methylpiperidin-4-yl)-2H-indazol-6-yl)dihydropyrimidine-2,4 (1H,3H)-dione], the concentration for half-maximal inhibition (IC50) turned out to be 655 nM.

Consider `O=C1CCN(c2ccc3c(ccn3C3CCNCC3)c2)C(=O)N1` [Example 113, 1-(1-(Piperidin-4-yl)-1H-indol-5-yl)dihydropyrimidine-2,4 (1H,3H)-dione], for which the 50% inhibitory concentration (IC50) came out at 1080 nM. Then `CN1CCC(n2ccc3cc(N4CCC(=O)NC4=O)ccc32)CC1` [Example 114, 1-(1-(1-Methylpiperidin-4-yl)-1H-indol-5-yl)dihydropyrimidine-2,4 (1H,3H)-dione], with 1050 nM; and `CC(=O)N1CCC(n2ccc3cc(N4CCC(=O)NC4=O)ccc32)CC1` [Example 115, 1-(1-(1-Acetylpiperidin-4-yl)-1H-indol-5-yl)dihydropyrimidine-2,4 (1H,3H)-dione], with 933 nM. Then `O=C1CCN(c2ccc3c(C4CCNCC4)c[nH]c3c2)C(=O)N1` [Example 116, 1-(3-(Piperidin-4-yl)-1H-indol-6-yl)dihydropyrimidine-2,4 (1H,3H)-dione], with 368 nM; and `CN1CCC(c2c[nH]c3cc(N4CCC(=O)NC4=O)ccc23)CC1` [Example 117, 1-(3-(1-Methylpiperidin-4-yl)-1H-indol-6-yl)dihydropyrimidine-2,4 (1H,3H)-dione], with 2160 nM; and `CC(=O)N1CCC(c2c[nH]c3cc(N4CCC(=O)NC4=O)ccc23)CC1` [Example 118, 1-(3-(1-Acetylpiperidin-4-yl)-1H-indol-6-yl)dihydropyrimidine-2,4 (1H,3H)-dione], with 389 nM. Then `CN1CCC(c2cn(C)c3cc(N4CCC(=O)NC4=O)ccc23)CC1` [Example 119, 1-(1-Methyl-3-(1-methylpiperidin-4-yl)-1H-indol-6-yl)dihydropyrimidine-2,4 (1H,3H)-dione], with 1450 nM; and `O=C1CCN(c2ccc3ccn(C4CCNCC4)c3c2)C(=O)N1` [Example 120, 1-(1-(Piperidin-4-yl)-1H-indol-6-yl)dihydropyrimidine-2,4 (1H,3H)-dione], with 2200 nM. In turn, `CN1CCC(n2ccc3ccc(N4CCC(=O)NC4=O)cc32)CC1` [Example 121, 1-(1-(1-Methylpiperidin-4-yl)-1H-indol-6-yl)dihydropyrimidine-2,4 (1H,3H)-dione] had an IC50 of 3840 nM. In the case of `CC(=O)N1CCC(n2ccc3ccc(N4CCC(=O)NC4=O)cc32)CC1` [Example 122, 1-(1-(1-Acetylpiperidin-4-yl)-1H-indol-6-yl)dihydropyrimidine-2,4 (1H,3H)-dione] it was 2120 nM; in that of `O=C1CCN(c2ccc(N3CCNCC3)c3[nH]ccc23)C(=O)N1` [Example 123, 1-(7-(Piperazin-1-yl)-1H-indol-4-yl)dihydropyrimidine-2,4 (1H,3H)-dione], 597 nM; in that of `CN1CCN(c2ccc(N3CCC(=O)NC3=O)c3cc[nH]c23)CC1` [Example 124, 1-(7-(4-Methylpiperazin-1-yl)-1H-indol-4-yl)dihydropyrimidine-2,4 (1H,3H)-dione], 527 nM.

`Cn1ccc2c(N3CCC(=O)NC3=O)ccc(N3CCNCC3)c21` [Example 125, 1-(1-Methyl-7-(piperazin-1-yl)-1H-indol-4-yl)dihydropyrimidine-2,4 (1H,3H)-dione] yielded an IC50 of 458 nM. `CN1CCN(c2ccc(N3CCC(=O)NC3=O)c3ccn(C)c23)CC1` [Example 126, 1-(1-Methyl-7-(4-methylpiperazin-1-yl)-1H-indol-4-yl)dihydropyrimidine-2,4 (1H,3H)-dione] returned an IC50 of 577 nM. In the case of `O=C1CCN(c2ccc3sccc3c2)C(=O)N1` [Example 130, 1-(Benzo[b]thiophen-5-yl)dihydropyrimidine-2,4 (1H,3H)-dione] it was 706 nM.

Values taken from patent US20230374007A1, “COMPOUNDS AND THEIR USE IN TREATING CANCER” (AstraZeneca AB, priority 2020, published 2023).
